# Test results taken from patent US3951955A, “Penicillins substituted with heterocyclic groups” (Sumitomo Chemical Company, Limited, priority 1970, dated 1976).
# Tests used:
# [1] = test system: Escherichia coli NIHJ; assay: minimal inhibitory concentration, agar dilution method (in vitro); assay type: cell-based
# Text: (§1) When determined according to the agar dilution method, the penicillins [I] afford the minimal inhibitory concentrations as shown in the following Table 1: […]
# [2] = test system: Klebsiella pneumoniae 602; assay: as above; assay type: cell-based
# Text: as §1
# [3] = test system: Proteus miravilis 2425; assay: as above; assay type: cell-based
# Text: as §1
# [4] = test system: Pseudomonas aeruginosa 104; assay: as above; assay type: cell-based
# Text: as §1
# [5] = test system: Staphylococcus aureus 209P; assay: as above; assay type: cell-based
# Text: as §1
# [6] = test system: various gram-positive and gram-negative bacteria; conditions: background statement on prior art; cited from earlier work
# [7] = test system: Pseudomonas; conditions: background statement on prior art; cited from earlier work
Compound,MIC [1] [µg/mL],MIC [2] [µg/mL],MIC [3] [µg/mL],MIC [4] [µg/mL],MIC [5] [µg/mL],growth inhibition / antimicrobial activity against gram-positive and gram-negative bacteria [6],antimicrobial activity against Pseudomonas [7]
COc1nc(OC)c2c(O)c(C(=O)NC(C(=O)N[C@@H]3C(=O)N4[C@@H]3SC(C)(C)[C@@H]4C(=O)O)c3ccccc3)cnc2n1 (some centres unmarked) [Example 26],3.13,3.13,3.13,3.13,0.78,,
CCNc1ccc2ncc(C(=O)NC(C(=O)NC3C(=O)N4C3SC(C)(C)C4C(=O)O)c3ccccc3)c(O)c2n1 (centres unmarked) [Example 41],3.13,6.25,6.25,6.25,0.78,,
CN(C)c1ncc2c(O)c(C(=O)NC(C(=O)NC3C(=O)N4C3SC(C)(C)C4C(=O)O)c3ccccc3)cnc2n1 (centres unmarked) [Example 46],3.13,1.56,3.13,3.13,1.56,,
COc1nc(O)nc2c(O)c(C(=O)NC(C(=O)NC3C(=O)N4C3SC(C)(C)C4C(=O)O)c3ccccc3)cnc12 (centres unmarked) [Example 52],3.13,3.13,3.13,6.25,1.56,,
CC1(C)SC2C(NC(=O)C(NC(=O)c3cnc4nc(N)ncc4c3O)c3ccccc3)C(=O)N2C1C(=O)O (centres unmarked) [Example 49],6.25,6.25,6.25,12.5,0.78,,
COc1ccc2ncc(C(=O)NC(C(=O)N[C@@H]3C(=O)N4[C@@H]3SC(C)(C)[C@@H]4C(=O)O)c3ccccc3)c(O)c2c1 (some centres unmarked) [Example 19],6.25,0.78,1.56,6.25,0.39,,
"CC1(C)S[C@@H]2C(NC(=O)C(N)c3ccccc3)C(=O)N2[C@H]1C(=O)O (stereo partly drawn) [Ampicillin, 6-(α-aminophenylacetamido)-penicillanic acid, reference compound]",6.25,50,3.13,> 200,0.2,inhibits the growth of various gram-positive and gram-negativebacteria,does not exert any appreciable antimicrobial activity against Pseudomonas
COc1nc(OC)c2ncc(C(=O)NC(C(=O)NC3C(=O)N4C3SC(C)(C)C4C(=O)O)c3ccccc3)c(O)c2n1 (centres unmarked) [Example 54],6.25,3.13,3.13,6.25,1.56,,
CC1(C)S[C@@H]2[C@H](NC(=O)C(NC(=O)c3cnc4cc(Cl)ccc4c3O)c3ccccc3)C(=O)N2[C@H]1C(=O)O (some centres unmarked) [Example 15],3.13,0.39,1.56,3.13,0.2,,
CCN(CC)c1ccc2ncc(C(=O)NC(C(=O)NC3C(=O)N4C3SC(C)(C)C4C(=O)O)c3ccccc3)c(O)c2n1 (centres unmarked) [Example 37],0.78,0.78,1.56,3.13,0.78,,
CC1(C)SC2C(NC(=O)C(NC(=O)c3cnc4cnc(O)nc4c3O)c3ccccc3)C(=O)N2C1C(=O)O (centres unmarked) [Example 53],3.13,6.25,6.25,6.25,1.56,,
CCOC(=O)Oc1c(C(=O)NC(C(=O)N[C@@H]2C(=O)N3[C@@H]2SC(C)(C)[C@@H]3C(=O)O)c2ccccc2)cnc2cc(OC)ccc12 (some centres unmarked) [Example 17],3.13,0.39,1.56,3.13,0.2,,
Cc1nc(C)c2c(O)c(C(=O)NC(C(=O)NC3C(=O)N4C3SC(C)(C)C4C(=O)O)c3ccccc3)cnc2n1 (centres unmarked) [Example 48],12.5,3.13,6.25,12.5,0.78,,
CC(=O)CC(=O)Nc1ccc2ncc(C(=O)NC(C(=O)NC3C(=O)N4C3SC(C)(C)C4C(=O)O)c3ccccc3)c(O)c2n1 (centres unmarked) [Example 31],3.13,6.25,6.25,6.25,0.78,,
COc1c(C(=O)NC(C(=O)N[C@@H]2C(=O)N3[C@@H]2SC(C)(C)[C@@H]3C(=O)O)c2ccccc2)cnc2ccccc12 (some centres unmarked) [Example 14],25,25,12.5,12.5,0.2,,
CCCCNc1ccc2ncc(C(=O)NC(C(=O)NC3C(=O)N4C3SC(C)(C)C4C(=O)O)c3ccccc3)c(O)c2n1 (centres unmarked) [Example 36],1.56,3.13,3.13,3.13,1.56,,

# Second part, led by results:
MIC [1] [µg/mL],MIC [2] [µg/mL],MIC [3] [µg/mL],MIC [4] [µg/mL],MIC [5] [µg/mL],Compound,growth inhibition / antimicrobial activity against gram-positive and gram-negative bacteria [6],antimicrobial activity against Pseudomonas [7]
3.13,1.56,3.13,3.13,0.78,Cc1nc(C)c2ncc(C(=O)NC(C(=O)NC3C(=O)N4C3SC(C)(C)C4C(=O)O)c3ccccc3)c(O)c2n1 (centres unmarked) [Example 55],,
1.56,0.78,1.56,3.13,0.78,CC1(C)SC2C(NC(=O)C(NC(=O)c3cnc4cncnc4c3O)c3ccccc3)C(=O)N2C1C(=O)O (centres unmarked) [Example 50],,
3.13,6.25,3.13,3.13,1.56,Cc1ccnc2c(O)c(C(=O)NC(C(=O)NC3C(=O)N4C3SC(C)(C)C4C(=O)O)c3ccccc3)cnc12 (centres unmarked) [Example 34],,
1.56,3.13,1.56,3.13,0.78,COc1ccc2ncc(C(=O)NC(C(=O)N[C@@H]3C(=O)N4[C@@H]3SC(C)(C)[C@@H]4C(=O)O)c3ccccc3)c(O)c2n1 (some centres unmarked) [Example 28],,
12.5,12.5,6.25,12.5,0.78,COc1nccc2ncc(C(=O)NC(C(=O)NC3C(=O)N4C3SC(C)(C)C4C(=O)O)c3ccccc3)c(O)c12 (centres unmarked) [Example 44],,
1.56,6.25,3.13,3.13,0.78,CC1(C)S[C@@H]2[C@H](NC(=O)C(NC(=O)c3cnc4cccnc4c3O)c3ccccc3)C(=O)N2[C@H]1C(=O)O (some centres unmarked) [Example 27],,
3.13,3.13,6.25,3.13,0.78,Cc1ncc2ncc(C(=O)NC(C(=O)NC3C(=O)N4C3SC(C)(C)C4C(=O)O)c3ccccc3)c(O)c2n1 (centres unmarked) [Example 56],,
3.13,3.13,3.13,6.25,1.56,Cc1cnc2c(O)c(C(=O)NC(C(=O)NC3C(=O)N4C3SC(C)(C)C4C(=O)O)c3ccccc3)cnc2c1 (centres unmarked) [Example 33],,
